Source: patent publication US8716289B2, “Carbamate derivatives of alkyl-heterocycles, preparation thereof and therapeutic use thereof” (Sanofi, priority 2008, dated 2014)

| Structure (SMILES) | melting point [°C] |
| --- | --- |
| CC(C)CC(OC(=O)NCCC1CCN(c2ccc3cc(Cl)ccc3n2)CC1)c1ccoc1 (racemic) | 97 to 99 |
| CC(C)CC(OC(=O)NCCC1CCN(c2cccc(-c3ccc(F)cc3)n2)CC1)c1ccoc1 (racemic) | 101 to 103 |
| CN(C)C1(CCNC(=O)OC(c2nccn2C)C(F)(F)F)CN(c2nnc(Cl)c3ccccc23)C1 (racemic) [Compound 63, 2,2,2-trifluoro-1-(1-methyl-1H-imidazol-2-yl)ethyl {2-[1-(4-chlorophthalazin-1-yl)-3-dimethylaminoazetidin-3-yl]ethyl}-carbamate] | 168 to 170 |
| Cn1ccnc1C(OC(=O)NCCC1CCN(c2ccc3cc(Cl)ccc3n2)CC1)C(F)(F)F (racemic) [Compound 73, 2,2,2-trifluoro-1-(1-methyl-1H-imidazol-2-yl)ethyl {2-[1-(6-chloroquinolin-2-yl)piperidin-4-yl]ethyl}carbamate] | 196 to 198 |
| NC(=O)c1cc(COC(=O)NC2CCCN(c3nccc(C(F)(F)F)n3)CC2)on1 (racemic) [Compound 74, 3-carbamoylisoxazol-5-ylmethyl (±)[1-(4-trifluoromethylpyrimidin-2-yl)azepan-4-yl]carbamate] | 171 to 173 |
| CNC(=O)c1cc(COC(=O)NCC2CCN(c3nnc(Cl)c4ccccc34)C2)on1 (racemic) [Compound 79, 3-methylcarbamoylisoxazol-5-ylmethyl (±)[1-(4-chlorophthalazin-1-yl)pyrrolidin-3-ylmethyl]carbamate] | 159 to 161 |
| O=C(NCCC1CCN(c2ccc3cc(Cl)ccc3n2)CC1)OCc1cc(-c2ccc(Cl)cc2)no1 [Compound 3, 3-(4-chlorophenyl)isoxazol-5-ylmethyl 2-[1-(6-chloroquinolin-2-yl)piperidin-4-yl]ethylcarbamate] | 139 to 140 |
| O=C(NCCC1CCN(c2ccc3cc(Cl)ccc3n2)CC1)OCc1nc(-c2ccc(Cl)cc2)no1 [Compound 4, 3-(4-chlorophenyl)[1,2,4]oxadiazol-5-ylmethyl 2-[1-(6-chloroquinolin-2-yl)piperidin-4-yl]ethylcarbamate] | 134 to 136 |
| Cc1onc(-c2ccccc2)c1COC(=O)NCCC1CCN(c2ccc3cc(Cl)ccc3n2)CC1 [Compound 6, 5-methyl-3-phenylisoxazol-4-ylmethyl 2-[1-(6-chloroquinolin-2-yl)piperidin-4-yl]ethylcarbamate] | 110 to 112 |
| CC(C)c1noc(COC(=O)NCCC2CCN(c3ccc(-c4ccc(F)cc4)cn3)CC2)n1 [Compound 7, 3-isopropyl[1,2,4]oxadiazol-5-ylmethyl 2-[5′-(4-fluorophenyl)-3,4,5,6-tetrahydro-2H-[1,2′]bipyridinyl-4-yl]-ethylcarbamate] | 96 to 98 |
| Cn1ccc(COC(=O)NCCC2CCN(c3ccc(-c4ccc(F)cc4)cn3)CC2)n1 [Compound 8, 1-methyl-1H-pyrazol-3-ylmethyl 2-[5′-(4-fluorophenyl)-3,4,5,6-tetrahydro-2H-[1,2′]bipyridinyl-4-yl]ethylcarbamate] | 154 to 156 |
| CC(C)(C)c1nnc(COC(=O)NCCC2CCN(c3ccc(-c4ccc(F)cc4)cn3)CC2)s1 [Compound 10, 5-tert-butyl[1,3,4]thiadiazol-2-ylmethyl 2-[5′-(4-fluorophenyl)-3,4,5,6-tetrahydro-2H-[1,2′]bipyridinyl-4-yl]-ethylcarbamate] | 139 to 140 |
| CC(C)c1nc(COC(=O)NCCC2CCN(c3ccc(-c4ccc(F)cc4)cn3)CC2)no1 [Compound 11, 5-isopropyl[1,2,4]oxadiazol-3-ylmethyl 2-[5′-(4-fluorophenyl)-3,4,5,6-tetrahydro-2H-[1,2′]bipyridinyl-4-yl]-ethylcarbamate] | 112 to 113 |
| O=C(NCCC1CCN(c2ccc3cc(Cl)ccc3n2)CC1)OCc1nnc(-c2ccc(Cl)cc2)o1 [Compound 13, 5-(4-chlorophenyl)[1,3,4]oxadiazol-2-ylmethyl 2-[1-(6-chloroquinolin-2-yl)piperidin-4-yl]ethylcarbamate] | 152 to 153 |
| COc1ccc(-c2nnc(COC(=O)NCCC3CCN(c4ccc5cc(Cl)ccc5n4)CC3)o2)cc1 [Compound 14, 5-(4-methoxyphenyl)[1,3,4]oxadiazol-2-ylmethyl 2-[1-(6-chloroquinolin-2-yl)piperidin-4-yl]ethylcarbamate] | 154 to 156 |
| O=C(NCCC1CCN(c2ccc3cc(Cl)ccc3n2)CC1)OCc1nc(-c2ccc(F)cc2)no1 [Compound 15, 3-(4-fluorophenyl)[1,2,4]oxadiazol-5-ylmethyl 2-[1-(6-chloroquinolin-2-yl)piperidin-4-yl]ethylcarbamate] | 160 to 162 |
| O=C(NCCC1CCN(c2ccc3cc(Cl)ccc3n2)CC1)OCc1nc(-c2cccc(F)c2)no1 [Compound 16, 3-(3-fluorophenyl)[1,2,4]oxadiazol-5-ylmethyl 2-[1-(6-chloroquinolin-2-yl)piperidin-4-yl]ethylcarbamate] | 134 to 136 |

| Structure (SMILES) | melting point [°C] |
| --- | --- |
| O=C(NCCC1CCN(c2ccc3cc(Cl)ccc3n2)CC1)OCc1nsc(-c2ccc(Cl)cc2)n1 [Compound 17, 5-(4-chlorophenyl)[1,2,4]thiadiazol-3-ylmethyl 2-[1-(6-chloroquinolin-2-yl)piperidin-4-yl]ethylcarbamate] | 191 to 193 |
| O=C(NCCC1CCN(c2ccc3cc(Cl)ccc3n2)CC1)OCc1csnn1 [Compound 18, [1,2,3]thiadiazol-4-ylmethyl 2-[1-(6-chloroquinolin-2-yl)piperidin-4-yl]ethylcarbamate] | 146 to 148 |
| CNC(=O)c1cc(COC(=O)NCCC2CCN(c3ccc4cc(Cl)ccc4n3)CC2)on1 [Compound 20, 3-methylcarbamoylisoxazol-5-ylmethyl 2-[1-(6-chloroquinolin-2-yl)piperidin-4-yl]ethylcarbamate] | 200 to 202 |
| NC(=O)c1coc(COC(=O)NCCC2CCN(c3ccc(-c4ccc(F)cc4)cn3)CC2)n1 [Compound 21, 4-carbamoyloxazol-2-ylmethyl 2-[5′-(4-fluorophenyl)-3,4,5,6-tetrahydro-2H-[1,2′]bipyridinyl-4-yl]ethylcarbamate] | 206 to 208 |
| CNC(=O)c1cc(COC(=O)NCCC2CCN(c3cccc(-c4ccc(F)cc4)n3)CC2)on1 [Compound 22, 3-methylcarbamoylisoxazol-5-ylmethyl 2-[6′-(4-fluoro-phenyl)-3,4,5,6-tetrahydro-2H-[1,2′]bipyridinyl-4-yl]-ethylcarbamate] | 155.5 to 157.5 |
| NC(=O)c1cc(COC(=O)NCCC2CCN(c3ccc4cc(F)ccc4n3)CC2)on1 [Compound 23, 3-carbamoylisoxazol-5-ylmethyl 2-[1-(6-fluoroquinolin-2-yl)piperidin-4-yl]ethylcarbamate] | 200 to 202 |
| NC(=O)c1cc(COC(=O)NCCC2CCN(c3cccc(-c4ccc(F)cc4)n3)CC2)on1 [Compound 24, 3-carbamoylisoxazol-5-ylmethyl 2-[6′-(4-fluorophenyl)-3,4,5,6-tetrahydro-2H-[1,2′]bipyridinyl-4-yl]ethylcarbamate] | 172 to 174 |
| CNC(=O)c1cc(COC(=O)NCCC2CCN(c3ccc4cc(F)ccc4n3)CC2)on1 [Compound 25, 3-methylcarbamoylisoxazol-5-ylmethyl 2-[1-(6-fluoroquinolin-2-yl)piperidin-4-yl]ethylcarbamate] | 180 to 182 |
| CNC(=O)c1cc(COC(=O)NCCC2CCN(c3ccc(-c4ccc(F)cc4)cn3)CC2)on1 [Compound 26, 3-methylcarbamoylisoxazol-5-ylmethyl 2-[5′-(4-fluorophenyl)-3,4,5,6-tetrahydro-2H-[1,2′]bipyridinyl-4-yl]-ethylcarbamate] | 191 to 193 |
| CN(C)C(=O)c1cc(COC(=O)NCCC2CCN(c3cccc(-c4ccc(F)cc4)n3)CC2)on1 [Compound 27, 3-dimethylcarbamoylisoxazol-5-ylmethyl 2-[6′-(4-fluorophenyl)-3,4,5,6-tetrahydro-2H-[1,2′]bipyridinyl-4-yl]-ethylcarbamate] | 81 to 83 |
| NC(=O)c1cc(COC(=O)NCCC2CCN(c3ccc(-c4cccc(F)c4)cn3)CC2)on1 [Compound 28, 3-carbamoylisoxazol-5-ylmethyl 2-[5′-(3-fluorophenyl)-3,4,5,6-tetrahydro-2H-[1,2′]bipyridinyl-4-yl]ethylcarbamate] | 172 to 176 |
| CN(C)C(=O)c1cc(COC(=O)NCCC2CCN(c3ccc(-c4ccc(F)cc4)cn3)CC2)on1 [Compound 30, 3-dimethylcarbamoylisoxazol-5-ylmethyl 2-[5′-(4-fluorophenyl)-3,4,5,6-tetrahydro-2H-[1,2′]bipyridinyl-4-yl]-ethylcarbamate] | 149 to 151 |
| CN(C)C(=O)c1cc(COC(=O)NCCC2CCN(c3ccc4cc(Cl)ccc4n3)CC2)on1 [Compound 31, 3-dimethylcarbamoylisoxazol-5-ylmethyl 2-[1-(6-chloroquinolin-2-yl)piperidin-4-yl]ethylcarbamate] | 114 to 116 |
| CNC(=O)c1cc(COC(=O)NCCC2CCN(c3cncc(-c4ccc(F)cc4)n3)CC2)on1 [Compound 32, 3-methylcarbamoylisoxazol-5-ylmethyl 2-{1-[6-(4-fluorophenyl)pyrazin-2-yl]piperidin-4-yl}ethylcarbamate] | 150 to 152 |
| CCOC(=O)c1cc(COC(=O)NCC2(F)CCN(c3nccc(C(F)(F)F)n3)CC2)on1 [Compound 51, ethyl 5-[4-fluoro-1-(4-trifluoromethylpyrimidin-2-yl)-piperidin-4-ylmethylcarbamoyloxymethyl]isoxazole-3-carboxylate] | 136 to 138 |
| O=C(NCCC1CCN(c2ccc3cc(Cl)ccc3n2)CC1)OCc1cc(C(=O)O)no1 [Compound 53, 5-{2-[1-(6-chloroquinolin-2-yl)piperidin-4-yl]ethylcarbamoyloxymethyl}isoxazole-3-carboxylic acid] | 180 to 182 |
| CC(C)c1nc(COC(=O)NCC2CCN(c3nccc(C(F)(F)F)n3)CC2)no1 [Compound 55, 5-isopropyl[1,2,4]oxadiazol-3-ylmethyl [1-(4-trifluoromethylpyrimidin-2-yl)piperidin-4-yl]methylcarbamate] | 104 to 106 |
